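Briefly, cells in 96-well plates were exposed to five compound concentrations for 48 h, and endpoints were estimated by linear interpolation. TGI marks complete inhibition of growth.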

This note sets out measurements from PubChem BioAssay (NCI).

The subject of one experiment is HL-60(TB) leukemia. The experiment can be described thus: inhibition of tumour cell growth, NCI panel, 48 h.
`O=c1[nH]c2cc(Cl)ccc2nc1/C(=N\O)C(O)c1cccc([N+](=O)[O-])c1` (centres undefined) came in with a TGI above 100 µM.

For the next experiment, the system named is HOP-18 NSCLC. The experiment can be described thus: inhibition of tumour cell growth, NCI panel, 48 h.
`COc1cc(/C=C2/C(=O)N(C(=O)OCC(C)C)C(Cc3cc(OC)c(OC)c(C)c3OC)C(=O)N2Cc2ccccc2)c(OC)c(C)c1OC` (centres undefined) displayed a TGI above 100 µM.

Consider `NC(=O)N/N=C(\CC1OC(=O)c2ccccc21)c1ccco1` (centres undefined), for which the TGI is above 100 µM.

For the compound `O=c1[nH]c2cc(Cl)ccc2nc1/C(=N\O)C(O)c1cccc([N+](=O)[O-])c1` (centres undefined), the TGI was above 100 µM.

The next experiment has as its system HOP-62 NSCLC. The experiment can be described thus: inhibition of tumour cell growth, NCI panel, 48 h.
`NC1=C(NC(=O)Cc2ccc(F)cc2)C(=O)c2ccccc2C1=O`: the TGI was above 87.6 µM.

For `COc1cc(/C=C2/C(=O)N(C(=O)OCC(C)C)C(Cc3cc(OC)c(OC)c(C)c3OC)C(=O)N2Cc2ccccc2)c(OC)c(C)c1OC` (centres undefined), the TGI was above 100 µM.

Compound `O=c1[nH]c2cc(Cl)ccc2nc1/C(=N\O)C(O)c1cccc([N+](=O)[O-])c1` (centres undefined) showed a TGI above 100 µM.

The test system of the next experiment is HOP-92 NSCLC. Briefly: inhibition of tumour cell growth, NCI panel, 48 h.
On to `NC1=C(NC(=O)Cc2ccc(F)cc2)C(=O)c2ccccc2C1=O`, for which the TGI stood at 64.3 µM.

In turn, `COc1cc(/C=C2/C(=O)N(C(=O)OCC(C)C)C(Cc3cc(OC)c(OC)c(C)c3OC)C(=O)N2Cc2ccccc2)c(OC)c(C)c1OC` (centres undefined) showed a TGI above 100 µM.

Compound `NC(=O)N/N=C(\CC1OC(=O)c2ccccc21)c1ccco1` (centres undefined) gave a TGI above 100 µM.

`O=c1[nH]c2cc(Cl)ccc2nc1/C(=N\O)C(O)c1cccc([N+](=O)[O-])c1` (centres undefined) showed a TGI above 100 µM.

The next experiment relates to HT29 colon. Briefly: inhibition of tumour cell growth, NCI panel, 48 h.
`NC1=C(NC(=O)Cc2ccc(F)cc2)C(=O)c2ccccc2C1=O` gave a TGI above 100 µM.

In turn, `COc1cc(/C=C2/C(=O)N(C(=O)OCC(C)C)C(Cc3cc(OC)c(OC)c(C)c3OC)C(=O)N2Cc2ccccc2)c(OC)c(C)c1OC` (centres undefined) returned a TGI above 100 µM.

Take `NC(=O)N/N=C(\CC1OC(=O)c2ccccc21)c1ccco1` (centres undefined): the TGI is above 100 µM.

`O=c1[nH]c2cc(Cl)ccc2nc1/C(=N\O)C(O)c1cccc([N+](=O)[O-])c1` (centres undefined) had a TGI above 100 µM.

The test system of another experiment is IGROV1 ovarian. The experiment can be described thus: inhibition of tumour cell growth, NCI panel, 48 h.
As to `NC1=C(NC(=O)Cc2ccc(F)cc2)C(=O)c2ccccc2C1=O`, the TGI came to 59.4 µM.

`COc1cc(/C=C2/C(=O)N(C(=O)OCC(C)C)C(Cc3cc(OC)c(OC)c(C)c3OC)C(=O)N2Cc2ccccc2)c(OC)c(C)c1OC` (centres undefined) returned a TGI above 100 µM.

`NC(=O)N/N=C(\CC1OC(=O)c2ccccc21)c1ccco1` (centres undefined): the TGI was above 100 µM.

In the case of `O=c1[nH]c2cc(Cl)ccc2nc1/C(=N\O)C(O)c1cccc([N+](=O)[O-])c1` (centres undefined), the TGI is above 100 µM.

The test system of another experiment is K-562 leukemia. Briefly: inhibition of tumour cell growth, NCI panel, 48 h.
`NC1=C(NC(=O)Cc2ccc(F)cc2)C(=O)c2ccccc2C1=O` displayed a TGI above 100 µM.

As to `COc1cc(/C=C2/C(=O)N(C(=O)OCC(C)C)C(Cc3cc(OC)c(OC)c(C)c3OC)C(=O)N2Cc2ccccc2)c(OC)c(C)c1OC` (centres undefined), the TGI is above 100 µM.

Consider `NC(=O)N/N=C(\CC1OC(=O)c2ccccc21)c1ccco1` (centres undefined), for which the TGI is above 100 µM.

On to `O=c1[nH]c2cc(Cl)ccc2nc1/C(=N\O)C(O)c1cccc([N+](=O)[O-])c1` (centres undefined), for which the TGI is above 100 µM.

The next experiment has as its system KM12 colon. Briefly: inhibition of tumour cell growth, NCI panel, 48 h.
In the case of `NC1=C(NC(=O)Cc2ccc(F)cc2)C(=O)c2ccccc2C1=O`, the TGI was above 100 µM.

Turning to `COc1cc(/C=C2/C(=O)N(C(=O)OCC(C)C)C(Cc3cc(OC)c(OC)c(C)c3OC)C(=O)N2Cc2ccccc2)c(OC)c(C)c1OC` (centres undefined), the TGI was above 100 µM.

In turn, `NC(=O)N/N=C(\CC1OC(=O)c2ccccc21)c1ccco1` (centres undefined) displayed a TGI above 100 µM.

Take `O=c1[nH]c2cc(Cl)ccc2nc1/C(=N\O)C(O)c1cccc([N+](=O)[O-])c1` (centres undefined): the TGI is above 100 µM.

The subject of another experiment is KM20L2 colon. Briefly: inhibition of tumour cell growth, NCI panel, 48 h.
`NC1=C(NC(=O)Cc2ccc(F)cc2)C(=O)c2ccccc2C1=O` showed a TGI above 100 µM.

In turn, `COc1cc(/C=C2/C(=O)N(C(=O)OCC(C)C)C(Cc3cc(OC)c(OC)c(C)c3OC)C(=O)N2Cc2ccccc2)c(OC)c(C)c1OC` (centres undefined) came in with a TGI above 100 µM.

`NC(=O)N/N=C(\CC1OC(=O)c2ccccc21)c1ccco1` (centres undefined) came in with a TGI above 100 µM.

Compound `O=c1[nH]c2cc(Cl)ccc2nc1/C(=N\O)C(O)c1cccc([N+](=O)[O-])c1` (centres undefined) yielded a TGI above 100 µM.

A further experiment relates to LOX IMVI melanoma. Briefly: inhibition of tumour cell growth, NCI panel, 48 h.
For `NC1=C(NC(=O)Cc2ccc(F)cc2)C(=O)c2ccccc2C1=O`, the TGI is 31.4 µM.

Take `COc1cc(/C=C2/C(=O)N(C(=O)OCC(C)C)C(Cc3cc(OC)c(OC)c(C)c3OC)C(=O)N2Cc2ccccc2)c(OC)c(C)c1OC` (centres undefined): the TGI was above 100 µM.

`NC(=O)N/N=C(\CC1OC(=O)c2ccccc21)c1ccco1` (centres undefined) displayed a TGI above 100 µM.

In turn, `O=c1[nH]c2cc(Cl)ccc2nc1/C(=N\O)C(O)c1cccc([N+](=O)[O-])c1` (centres undefined) had a TGI above 100 µM.

The next experiment has as its system LXFL 529 NSCLC. The experiment can be described thus: inhibition of tumour cell growth, NCI panel, 48 h.
The compound `NC1=C(NC(=O)Cc2ccc(F)cc2)C(=O)c2ccccc2C1=O` registered a TGI above 100 µM.

In turn, `COc1cc(/C=C2/C(=O)N(C(=O)OCC(C)C)C(Cc3cc(OC)c(OC)c(C)c3OC)C(=O)N2Cc2ccccc2)c(OC)c(C)c1OC` (centres undefined) returned a TGI above 100 µM.

`NC(=O)N/N=C(\CC1OC(=O)c2ccccc21)c1ccco1` (centres undefined) came in with a TGI above 100 µM.

As to `O=c1[nH]c2cc(Cl)ccc2nc1/C(=N\O)C(O)c1cccc([N+](=O)[O-])c1` (centres undefined), the TGI was above 100 µM.

In a further experiment the test system is M14 melanoma. The experiment can be described thus: inhibition of tumour cell growth, NCI panel, 48 h.
Consider `NC1=C(NC(=O)Cc2ccc(F)cc2)C(=O)c2ccccc2C1=O`, for which the TGI was above 100 µM.

The compound `COc1cc(/C=C2/C(=O)N(C(=O)OCC(C)C)C(Cc3cc(OC)c(OC)c(C)c3OC)C(=O)N2Cc2ccccc2)c(OC)c(C)c1OC` (centres undefined) returned a TGI above 100 µM.

The compound `NC(=O)N/N=C(\CC1OC(=O)c2ccccc21)c1ccco1` (centres undefined) had a TGI above 100 µM.

In turn, `O=c1[nH]c2cc(Cl)ccc2nc1/C(=N\O)C(O)c1cccc([N+](=O)[O-])c1` (centres undefined) gave a TGI above 100 µM.

The subject of the next experiment is M19-MEL melanoma. The experiment can be described thus: inhibition of tumour cell growth, NCI panel, 48 h.
`NC1=C(NC(=O)Cc2ccc(F)cc2)C(=O)c2ccccc2C1=O` had a TGI of 45.4 µM.

In the case of `COc1cc(/C=C2/C(=O)N(C(=O)OCC(C)C)C(Cc3cc(OC)c(OC)c(C)c3OC)C(=O)N2Cc2ccccc2)c(OC)c(C)c1OC` (centres undefined), the TGI was above 100 µM.

As to `NC(=O)N/N=C(\CC1OC(=O)c2ccccc21)c1ccco1` (centres undefined), the TGI is above 100 µM.

`O=c1[nH]c2cc(Cl)ccc2nc1/C(=N\O)C(O)c1cccc([N+](=O)[O-])c1` (centres undefined) yielded a TGI above 100 µM.

For another experiment, the system named is MALME-3M melanoma. The experiment can be described thus: inhibition of tumour cell growth, NCI panel, 48 h.
Compound `NC1=C(NC(=O)Cc2ccc(F)cc2)C(=O)c2ccccc2C1=O` came in with a TGI above 100 µM.

Consider `COc1cc(/C=C2/C(=O)N(C(=O)OCC(C)C)C(Cc3cc(OC)c(OC)c(C)c3OC)C(=O)N2Cc2ccccc2)c(OC)c(C)c1OC` (centres undefined), for which the TGI was above 100 µM.

As to `NC(=O)N/N=C(\CC1OC(=O)c2ccccc21)c1ccco1` (centres undefined), the TGI is above 100 µM.

`O=c1[nH]c2cc(Cl)ccc2nc1/C(=N\O)C(O)c1cccc([N+](=O)[O-])c1` (centres undefined) gave a TGI above 100 µM.

The subject of the next experiment is MOLT-4 leukemia. Briefly: inhibition of tumour cell growth, NCI panel, 48 h.
Compound `NC1=C(NC(=O)Cc2ccc(F)cc2)C(=O)c2ccccc2C1=O` gave a TGI above 100 µM.

Compound `COc1cc(/C=C2/C(=O)N(C(=O)OCC(C)C)C(Cc3cc(OC)c(OC)c(C)c3OC)C(=O)N2Cc2ccccc2)c(OC)c(C)c1OC` (centres undefined) registered a TGI above 100 µM.

With `NC(=O)N/N=C(\CC1OC(=O)c2ccccc21)c1ccco1` (centres undefined), the TGI is above 100 µM.
